Source: US20110165173A1, “THERAPEUTIC AGENT AND DETECTION REAGENT FOR ARTERIOSCLEROTIC DISEASE WHICH TARGETS FOR SALUSIN” (PROTEINEXPRESS CO., LTD., priority 2007, published 2011)

Legend:
ACAT-1 mRNA expression = ACAT-1 mRNA expression in human monocyte-derived macrophages (real time RT-PCR); format: cell-based; conditions: 0.6 nM during 7-day culture
Experimental: RNA extraction was performed using a TRIzol reagent (LIFE TECHNOLOGIES).
Cells were cultured for 7 days in a medium and then the medium was removed. The cells were washed 3 times with PBS. PBS was sufficiently removed therefrom and TRIzol (1 mL) was added thereto for cell lysis. The cell extraction solution was pippeted in and out 5 times and then transferred to a new Eppendorf tube. Then, the tube was left at room temperature for 5 minutes. Chloroform (200 μL) was added thereto, followed by strong shaking for 15 seconds. The tube was further left for 2 to 3 minutes and centrifuged at 12,000 rpm for 15 minutes (Himac CF15D2 high-speed micro refrigerated centrifuge; Hitach, Ltd.). The top layer was transferred to a new Eppendorf tube and isopropanol (500 μL) was added thereto, followed by end-over-end mixing. […] The concentration of the thus obtained RNA solution was obtained by absorbance determination at 260 nm. […]
Next, the RNA expression of ACAT-1 mRNA was analyzed by the real time RT-PCR method.
Primer sequences were determined Primer Express Version 1.0 (PE Biosystems) with the use of the respective human mRNA sequences shown below. […]
Real time PCR was performed to quantify the obtained cDNA by the GeneAmp 5700 Sequence Detection System (Applied Biosystems Japan) with the use of qPCR MasterMix SYBR Greenl (Eurogentec). […]

[1] = tested on: ATP-binding cassette transporter A1 (ABCA-1) protein expression; experiment: ABCA-1 protein expression in human monocyte-derived macrophages (Western blotting); format: cell-based; conditions: 0, 0.2, 0.4, 0.6, 0.8, or 1.0 nM during 7-day culture
Experimental: Monocyte-derived macrophages that had been cultured for 7 days were washed with PBS 3 times, followed by solubilization with the addition of 10% SDS (sodium dodecyl sulfate) (100 μL) to each dish. Each cell extraction solution was scooped up with a cell scraper, followed by pulverization with the use of a 1-mL TERUMO syringe and a 23-G injection needle for fragmentation (shearing). The resultant was centrifuged at 15,000 rpm for 3 minutes (Himac CF15D2 high-speed micro refrigerated centrifuge; Hitach, Ltd.). The supernatant protein concentration was assayed by the bicinchoninic acid (BCA) method (Pierce) and used as a cell extraction solution for Western blotting.
For ABCA-1 protein detection, a reaction with an anti-human ABCA-1 antibody was carried out on a transfer membrane at room temperature for 1 hour. For a primary antibody (anti-human ABCA-1 rabbit polyclonal antibody (Funakoshi Corporation)), a stock solution (5 μL) was diluted 1,000-fold with PBS-0.1% Tween 20 (5 mL), and the diluent was used. The transfer membrane was washed with PBS-0.1% Tween 20. Then, a reaction with a secondary antibody (anti-rabbit IgG antibody: anti-rabbit IgG donkey antibody conjugated with horseradish peroxidase (HRP) (GE Healthcare Bio-Science)) was carried out at room temperature for 1 hour. […]

| Substance | ACAT-1 mRNA expression level, percent of that of the control (ACAT-1 mRNA expression) | ABCA-1 protein expression [1] | ACAT-1 mRNA expression level relative to control (ACAT-1 mRNA expression) |
| --- | --- | --- | --- |
| salusin-α: peptide (SEQ ID NO: 1) comprising 28 amino acid residues, generated by processing from preprosalusin (SGALPPAPAAPRPALRAQRAGPAGPGAK; listed as Homo sapiens) | 80% | no significant changes |  |
| salusin-β: peptide (SEQ ID NO: 3) comprising 20 amino acid residues, generated by processing from preprosalusin (AIFIFIRWLLKLGHHGRAPP; listed as Homo sapiens) [reference compound] |  | no significant changes | 1.6 times |
